# “Also recorded” adds a separate entry of the source.
# Tests used:
# [1] = test system: HepG2 human hepatocarcinoma cells; test: Rotenone ATP Assay (Complex I Assay); type: cell-based; conditions: for activity in both the BSO Assay and the Rotenone ATP Assay, in words: BSO Assay and Rotenone ATP Assay taken together; for Rotenone ATP Assay EC50, nM: Table 7; for Complex I by-pass activity / restoring ATP production, in words: summary of rotenone assays
# Procedure: This assay has been adapted from Haefeli R H, Erb M, Gemperli A C, Robay D, Courdier Fruh I, et al. (2011) NQO1-Dependent Redox Cycling of Idebenone: Effects on Cellular Redox Potential and Energy Levels. PLoS ONE 6(3): e17963. HepG2 human hepatocarcinoma cells were co-incubated with the electron transport chain Complex I toxin rotenone +/− compounds of interest and the corresponding effect on ATP synthesis was measured with a bioluminescent substrate.
# In brief, HepG2 cells were plated at 25,000 cells per well in low glucose (1 gram/Liter) DMEM medium+10% fetal calf serum and incubated for 24 hours. The following day, the media was decanted and subsequently replaced with glucose free/serum free DMEM which has been supplemented with 50 micromolar rotenone and compound of interest. Serial dilutions of compound were prepared in 3× dilutions beginning at 25 micromolar. The cells were incubated for 60 minutes in a humidified tissue culture incubator. Following incubation, ATP levels were quantified via bioluminescent assay (Promega […] Glo Assay kit) and readings were captured on a standard microplate reader.
# ATP bioluminescence is plotted versus the log of compound of interest and data were used to generate EC50 values. Curve fitting was performed using a sigmoidal dose response curve fit function (GraphPad Prism software).
# Robustness of curve fit was assessed as a quality control measure, with an R squared value of at least 0.80 being required for a successful curve fit. Compounds of interest showing an increase in ATP bioluminescence relative to vehicle control were verified in an independent biological replicate of n=3 technical replicates per dose.
# This assay is a direct measure of the ability of compounds of interest to restore ATP production under conditions of inhibition of Complex I of the mitochondrial electron transport chain. As the majority of ATP produced via the electron transport chain is thought to derive from Complex I activity, significant impairment in Complex I function has dire biological consequences. Of note, Complex I mutations are thought to drive pathophysiology in multiple mitochondrial diseases, including Leigh syndrome and Leber's Hereditary Optic Neuropathy (LHON), while diminished Complex I activity and the resultant attenuation of ATP production has been shown in neurodegenerative diseases, including Friedreich's Ataxia, Parkinson's Disease and Huntington's Disease.
# [2] = test system: HepG2 cells; test: Rotenone Oxygraph Assay (high-resolution respirometry of intact HepG2 cells); type: cell-based, human; conditions: for Percent increase in ATP (Rotenone Oxygraph Assay), Mean: Table 4, intact HepG2 cells, change in respiration rate; for Percent increase in ATP (Rotenone Oxygraph Assay), Mean / Rotenone Oxygraph Assay % Increase: 1 μM rotenone, compound 10 μM; for Rotenone Oxygraph Assay % Increase: Table 7
# Procedure: The Oxygraph-2 k (O2k, OROBOROS INSTRUMENTS, Austria) was used for measurements of respiration of intact cells. The respirometry was performed in Dulbecco's Modified Eagle Medium (DMEM) high glucose without supplements. All experiments were performed at 37° C.
# HepG2 cells (ATCC collection code HB-8065™) were cultured in 10 cm^2 culture dishes in DMEM high glucose medium supplemented with 10% fetal bovine serum (FBS) and 100 units/mL penicillin and 100 μg/mL streptomycin until approximately 90% confluence was reached. Immediately prior to performing the respirometric assay, the cells were washed with media without FBS, trypsinized and resuspended in DMEM high glucose without FBS.
# The final concentration of intact cells in the O2k-chamber was 0.5·10^6/mL. After stabilization of respiration, the Complex I inhibitor, rotenone, at 1 μM final concentration was added to inhibit electron flux via Complex I. Then, compound to be tested was added at 10 μM final concentration, and the change in respiration rate of intact cells was monitored.
# [3] = test system: frataxin deficient fibroblasts (GM03665); test: cells; type: cell-based
# [4] = test system: GM03665 cells; test: RSL3 Toxicity Assay (RSL3 Assay); type: cell-based, human
# Procedure: In brief, GM03665 cells (Coriell Institute) were seeded in 96-well plates (Sarstedt) in DMEM cell culture media containing 10% Fetal Bovine serum and 1% Penicillin-Streptomycin (Pen-Strep) antibiotic mix at the amount of 2×10^4/mL (100 μL or 2×10^3 cells per well). Cells were left to rest overnight at 37° C. in a humidified atmosphere with 5% CO2 to allow attachment of the cells to the culture plate. Test compounds were prepared as DMSO stocks (10 mM) and were serially diluted in cell culture media to obtain 2× working solutions. Cell media was discarded and replaced by 50 μL of test compound solutions or cell media with vehicle for control wells. Within 15 minutes, 2× working solution (4 μM) of 1S,3R-RSL3 (CAS #1219810-16-8, Sigma-Aldrich) (diluted from 5 mM DMSO stock in cell culture media) was added. Final reaction volume was 100 μL and final DMSO concentration in reaction was kept below 0.2% (v/v) and equal in all wells. Final RSL3 concentration was 2 μM and test compound final concentrations in reaction were up to 1000 nM. After 24 hours of incubation cell viability was assessed by MTT test. MTT (Sigma-Aldrich) solution 1 mg/mL in 1×PBS (pH=7,4) was prepared 1 hour before the assay and filtered through Filtropur S 0.2 filters (Sarstedt). Cell media with test compounds was discarded and 100 μL of MTT solution was added to cells. The plates were incubated for 2 hours at +37° C. Thereafter, the MTT solution was removed and 100 μL of isopropanol was added to dissolve sediment. Absorption at 570 and 650 nm was measured using Hidex Sense microplate reader.
# [5] = test system: Nrf-2; test: Nrf-2 Activation Assay (Nrf-2 Assay); type: cell-based, human; conditions: for activation of Nrf-2 pathway, in words: FIG. 7; for Nrf-2 Assay: Table 7, 1 μM compound, 24 hours, qPCR of Nrf-2 responsive genes
# Procedure: This assay was developed internally and was designed to determine if the novel test compounds disclosed herein active Nrf-2 and thereby promote resolution of inflammation by the mechanism believed to be responsible for the activity of omaveloxolone.
# Briefly, GM03665 Friedreich Ataxia patient fibroblasts were grown in 12 Well Plates (TC Cell+F) (Sarstedt, Numbrecht Germany), at a density of […] in DMEM/F12 (Gibco, ThermoFisher Scientific, Waltham, MA, USA) cell media supplemented with 10% FBS and 1% Pen/Strep. Cells were left to rest overnight at 37° C. in a humidified atmosphere with 5% CO2 to allow attachment of the cells to the culture plate. Before continuing assay visual inspection of each well was done by light microscopy to detect any possible bacterial and fungal contamination. […] After incubation, cell media was removed and total RNA from the cells was isolated using E.Z.N.A.® Total RNA Kit I (Omega Bio-tek, Norcross, Georgia, USA) spin columns, and first-strand cDNA synthesis was carried out using a High Capacity cDNA Reverse Transcription Kit (Applied Biosystems™, Foster City, CA) following the manufacturer's instructions. qPCR analysis of gene expression was performed by mixing SYBR® Green Master Mix (Applied Biosystems™) with synthesized cDNA and forward and reverse primers. […] (60 cycles), and 95° C. for 60 seconds, followed by melt curve analysis at 72-95° C., 0.3° C./sec. The relative expression levels for each gene were calculated with the ΔΔCt method and normalized to the expression of REEP5 and SNRPD3 genes.
# [6] = target: lipoxygenase-15 enzyme (Glycine max (Soybean) (Glycine hispida), UniProt P08170); test: Lipoxygenase-15 Assay (LO-15 Assay); conditions: reduced form of compounds
# [7] = HepG2, 50 micromolar rotenone, 60 minutes
Compound,"activity in both the BSO Assay and the Rotenone ATP Assay, in words [1]","EC50 ([1]; Homo sapiens, 1 h, HepG2, 50 micromolar rotenone, 60 minutes, ATP bioluminescence, read-out: EC50 Rotenone ATP Assay) [µM]","Rotenone ATP Assay EC50, nM [1, 7]","Complex I by-pass activity / restoring ATP production, in words [1]","activity in Rotenone Oxygraph Assay, in words [2]","Percent increase in ATP (Rotenone Oxygraph Assay), Mean [2]",Rotenone Oxygraph Assay % Increase [2],"activity in BSO assay (protection from BSO induced cell death), in words [3]","EC50 ([3]; Homo sapiens, Fibroblast, FA patient fibroblasts pretreated with compound, 10 mM BSO, 48 hrs, MTT, read-out: EC50 (nM) BSO Assay) [nM]","activity in RSL3 assay (protection from RSL3 induced ferroptosis), in words [4]","activation of Nrf-2 pathway, in words [5]",Nrf-2 Assay [5],"activity in LO-15 assay, in words [6]","RSL3 Assay EC50, Mean ([4]; Table 3, 2 μM RSL3, 24 hours, MTT, mean of at least three measurements, unit printed in Table 7)","RSL3 Assay EC50, nM ([4]; Table 7, 2 μM RSL3, 24 hours, MTT)"
"CC(C)=CCC/C(C)=C/CC/C(C)=C/CC[C@@](C)(O)CCC1=C(C)C(=O)C(C)=C(C)C1=O (stereo in doubt) [Vatiquinone, reference compound]",do not possess both activities; also recorded: none of them are active in both assays,> 3,Inactive,not,inactive,Inactive,Inactive,ability to circumvent BSO induced cell death; also recorded: active,< 100,active,–,–,–,–,–
"Cc1c(C)c2c(c(C)c1O)CC[C@@](C)(CCC=C(F)F)O2 [Compound 67, (R)-2-(4,4-difluorobut-3-en-1-yl)-2,5,7,8-tetramethylchroman-6-ol]",possess both activities,–,–,–,–,–,–,–,–,–,–,–,–,–,–
"CC1=C(C)C(=O)C(CC[C@](C)(O)CC/C=C(\C)CC/C=C(\C)CCC=C2COC2)=C(C)C1=O [Compound E, 2-((R,6E,10E)-3-hydroxy-3,7,11-trimethyl-14-(oxetan-3-ylidene)tetradeca-6,10-dien-1-yl)-3,5,6-trimethylcyclohexa-2,5-diene-1,4-dione]",possess both activities,–,–,active,–,–,37.9 +/− 10.7%,able to prevent ferroptotic cell death; also recorded: active,–,active; also recorded: able to prevent ferroptotic cell death,do not activate,Inactive,outside of the range of the assay,–,–
"CC1=C(C)C(=O)C(CC[C@](C)(O)CC/C=C(\C)CCC=C(F)F)=C(C)C1=O [Compound H, (R,E)-2-(11,11-difluoro-3-hydroxy-3,7-dimethylundeca-6,10-dien-1-yl)-3,5,6-trimethylcyclohexa-2,5-diene-1,4-dione]",–,–,–,active,–,–,54.3 +/− 13%,able to prevent ferroptotic cell death; also recorded: active,–,active; also recorded: able to prevent ferroptotic cell death,do not activate,Inactive,active; also recorded: effective inhibitors,–,–
"CC1=C(C)C(=O)C(CC[C@@](C)(O)CC/C=C(\C)CCC=C(F)F)=C(C)C1=O [Compound L, (S,E)-2-(11,11-difluoro-3-hydroxy-3,7-dimethylundeca-6,10-dien-1-yl)-3,5,6-trimethylcyclohexa-2,5-diene-1,4-dione]",possess both activities,–,–,active,–,–,58.6 +/− 15.5%,able to prevent ferroptotic cell death; also recorded: active,–,active; also recorded: able to prevent ferroptotic cell death,do not activate,Inactive,active; also recorded: effective inhibitors,–,–
COC1=C(OC)C(=O)C(CCCCCCCCCCO)=C(C)C1=O [Idebenone],do not possess both activities; also recorded: none of them are active in both assays,–,–,ability to restore ATP production when Complex I is inhibited; also recorded: active,–,–,70.2 +/− 15%,very weakly active/borderline inactive,–,–,–,–,–,–,–
"CC1(C)CC[C@]2(NC(=O)C(C)(F)F)CC[C@]3(C)[C@H](C(=O)C=C4[C@@]5(C)C=C(C#N)C(=O)C(C)(C)[C@@H]5CC[C@]43C)[C@@H]2C1 [Omaveloxolone, reference compound]",do not possess both activities; also recorded: none of them are active in both assays,–,Inactive,not,inactive,Inactive,Inactive,ability to circumvent BSO induced cell death; also recorded: displayed anti-ferroptotic activity; also recorded: active,–,–,positive and does,Active,–,Inactive,Inactive

# Source: patent US20230303506A1, “COMPOSITIONS AND METHODS FOR THE PREVENTION AND/OR TREATMENT OF MITOCHONDRIAL DISEASE, INCLUDING FRIEDREICH'S ATAXIA” (Stealth BioTherapeutics Inc., priority 2019, published 2023)
